The nature of data set [1]: Uptake of [125I]iodothyronine derivatives by Xenopus laevis oocytes injected with Ntcp cRNA. The conditions noted are these: for uptake ratio at 1 h: oatp1, choline. The procedure: (§1) For capping, the m7G[5']ppp[5']G cap analog was used (Epicentre Technologies). cRNA was stored in water at -80 C at a concentration of 0.1 mg/ml.
(§2) Oocytes were prepared as described previously (9). After isolation, the oocytes were sorted on morphological criteria and defolliculated manually. […] The next day, oocytes were injected with 23 nl water containing 23 ng mRNA, 2.3 ng Ntcp cRNA or 2.3 ng oatp1 cRNA using the Nanoject system (Drummond Scientific, Broomall, PA). Injected and uninjected oocytes were maintained for 2-3 days at 18 C in modified Barth's solution.
(§3) Uptake assays were performed as described previously (9). […] After 1 h, incubation buffer was removed and the oocytes were washed four times with 2.5 ml ice-cold Na^+-containing incubation buffer supplemented with 0.1% BSA. Oocytes were transferred to new tubes and counted individually.

For data set [2], the system named is Na^+-independent organic anion transporting polypeptide (oatp1). The data set is described as follows: Uptake of [125I]iodothyronine derivatives by Xenopus laevis oocytes injected with oatp1 cRNA. The conditions noted are these: oatp1 cRNA-injected oocytes; 1-2 nM ligand; Na^+ medium. The procedure: as §1, §2, §3

Where a name gives a salt, the structure may show the parent alone.

With `N[C@@H](Cc1ccc(Oc2cc(I)c(O)c(I)c2)c(I)c1)C(=O)O` [rT3, 3,3',5'-triiodothyronine], the uptake ratio at 1 h, 100 µM in data set [1] amounted to 1.8; in data set [1] (xenopus oocytes, oatp1 crna) it was 6. Moreover, the uptake ratio at 1 h in data set [1] (xenopus oocytes) came out at 8.5.
The like results for `N[C@@H](Cc1ccc(Oc2ccc(O)c(I)c2)c(I)c1)C(=O)O` [3,3'-T2, 3,3'-diiodothyronine] were, in that order, 1.3, 1.4 and 1.8.
For the compound `N[C@@H](Cc1cc(I)c(Oc2cc(I)c(O)c(I)c2)c(I)c1)C(=O)O` [T4, 3,3',5,5'-tetraiodothyronine], the uptake ratio at 1 h, 100 µM in data set [1] (xenopus oocytes, ntcp crna) worked out at 1.9; in data set [1] (xenopus oocytes, oatp1 crna), 2.8. For the same compound, the uptake ratio at 1 h in data set [1] (xenopus oocytes) is 3.8.
In the case of `NC(Cc1cc(I)c(Oc2ccc(OS(=O)(=O)O)c(I)c2)c(I)c1)C(=O)O` (stereo not shown) [T3S, T3 sulfate], the “uptake higher than that of the other sulfates” value in data set [2] is recorded as around 50%.

(Values after patent publication EP0982399B1, “Thyroid hormone transporters, agonists and antagonists thereof” (Stichting tot bevordering van de wetenschap der …, priority 1998, dated 2000).)
